From US8946423B2, “Highly soluble salt of pyrroloquinoline quinone and method for producing the same” (Mitsubishi Gas Chemical Company, Inc., priority 2010, dated 2015)

Test: Dissolution test: salts dissolved up to saturation, solubility determined by absorbance at 450 nm
Settings: for solubility of pyrroloquinoline, mmol/L / solubility of pyrroloquinoline: saturation at room temperature of 23 to 28° C.; for Relative Ratio (solubility): relative to Disodium Salt of PQQ in water = 1
Procedure: The disodium salt of PQQ obtained by the method as described in Example 1 was used.
These salts were dissolved up to saturation at room temperature of 23 to 28° C., and these solutions each were diluted by 20 times or 400 times with a phosphate buffer having a pH of 7.5. For the diluted solutions each, an analysis of the ultraviolet-visible absorption spectra was carried out using a HITACHI U-2000 spectrometer.

| Compound | solubility in ethanol (in words) | solubility of pyrroloquinoline, mmol/L (Solvent Ethanol) | solubility of pyrroloquinoline, mmol/L (Solvent Water) | Relative Ratio (solubility) (Solvent Ethanol) | solubility of pyrroloquinoline (Solvent Ethanol) [mM] | Relative Ratio (solubility) (Solvent Water) | solubility of pyrroloquinoline (Solvent Water) [mM] |
| --- | --- | --- | --- | --- | --- | --- | --- |
| O=C([O-])c1cc(C(=O)[O-])c2c(n1)C(=O)C(=O)c1cc(C(=O)O)[nH]c1-2.[Na+].[Na+] [Disodium Salt of PQQ, reference compound] | almost insoluble | – | – | – | – | – | – |
| C[N+](C)(C)CCO.C[N+](C)(C)CCO.C[N+](C)(C)CCO.O=C(O)c1cc(C(=O)O)c2c(n1)C(=O)C(=O)c1cc(C(=O)O)[nH]c1-2 [Tricholine Salt of PQQ] | – | ≥ 171 or mmol/L | ≥ 171 or mmol/L | – | – | – | – |
| Dicholine Salt of PQQ | – | – | – | 13.9 | 111 | 11.8 | 94 |
| Monocholine Salt of PQQ | – | – | – | 0.06 | 0.52 | 0.24 | 1.94 |
